# From patent publication US20240158446A1, “CYCLIC COMPOUND HAVING SELECTIVE INHIBITORY ACTION ON KRAS OVER HRAS AND NRAS” (CHUGAI SEIYAKU KABUSHIKI KAISHA, priority 2021, published 2024)
# Like-named read-outs stand apart in the source and are kept apart here. Where a SMILES comes first, the peptide text is derived from it. Bridges are numbered along the chain shown (N, C = ends). [ ]: non-standard residue; d: D form. hPhe(3-Cl-4-CF3) = N[C@@H](CCc1ccc(C(F)(F)F)c(Cl)c1)C(=O)O; NPrPhe(4-CF3) = CCCN[C@@H](Cc1ccc(C(F)(F)F)cc1)C(=O)O; NMeGly(cPent) = CN[C@H](C(=O)O)C1CCCC1; Hyp = O=C(O)[C@@H]1C[C@@H](O)CN1; NMeD = CN[C@@H](CC(=O)O)C(=O)O; NMeL = CN[C@@H](CC(C)C)C(=O)O; NMeA = CN[C@@H](C)C(=O)O; Ac5c = NC1(C(=O)O)CCCC1; Aze = O=C(O)[C@@H]1CCN1; Sar = CNCC(=O)O
# Legend:
# [1] = biological target: GDP-bound HRAS wild-type protein (Homo sapiens, UniProt P01112); experiment: Binding to HRAS by surface plasmon resonance (SPR), Single Cycle Kinetics; details: for HRAS/KRAS (ratio of KD value with respect to GDP-bound HRAS wild-type protein to KD value with respect to KRAS): SPR KD ratio HRAS/KRAS, class symbols; for HRAS/KRAS (ratio of KD value with respect to HRAS to KD value with respect to KRAS) / HRAS/KRAS (ratio of KD value for HRAS to KD value for KRAS): SPR, GDP-bound HRAS wild-type protein vs GDP-bound KRAS wild-type protein
# GDP-bound HRAS wild-type protein, sequence (P01112 whole entry): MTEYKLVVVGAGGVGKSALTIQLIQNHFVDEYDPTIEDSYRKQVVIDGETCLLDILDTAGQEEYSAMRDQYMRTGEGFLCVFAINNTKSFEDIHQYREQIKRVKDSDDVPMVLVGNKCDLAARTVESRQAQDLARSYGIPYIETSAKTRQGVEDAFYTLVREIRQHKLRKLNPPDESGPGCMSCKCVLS
# [2] = biological target: GDP-bound KRAS wild-type protein (Homo sapiens, UniProt P01116); experiment: Binding to KRAS by surface plasmon resonance (SPR), Single Cycle Kinetics; details: GDP-bound KRAS wild-type protein, read-out: KRAS KD
# GDP-bound KRAS wild-type protein, sequence (P01116 whole entry): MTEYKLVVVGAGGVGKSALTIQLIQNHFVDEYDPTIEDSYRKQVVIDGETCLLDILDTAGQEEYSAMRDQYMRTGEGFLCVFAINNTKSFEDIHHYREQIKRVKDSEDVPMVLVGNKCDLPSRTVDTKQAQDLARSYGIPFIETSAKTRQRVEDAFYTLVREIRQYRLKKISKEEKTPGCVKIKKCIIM
# [3] = biological target: GDP-bound NRAS wild-type protein (Homo sapiens, UniProt P01111); experiment: Binding to NRAS by surface plasmon resonance (SPR), Single Cycle Kinetics; details: for NRAS/KRAS (ratio of KD value with respect to GDP-bound NRAS wild-type protein to KD value with respect to KRAS): SPR KD ratio NRAS/KRAS, class symbols; for NRAS/KRAS (ratio of KD value with respect to NRAS to KD value with respect to KRAS) / NRAS/KRAS (ratio of KD value for NRAS to KD value for KRAS): SPR, GDP-bound NRAS wild-type protein vs GDP-bound KRAS wild-type protein
# GDP-bound NRAS wild-type protein, sequence (P01111 whole entry): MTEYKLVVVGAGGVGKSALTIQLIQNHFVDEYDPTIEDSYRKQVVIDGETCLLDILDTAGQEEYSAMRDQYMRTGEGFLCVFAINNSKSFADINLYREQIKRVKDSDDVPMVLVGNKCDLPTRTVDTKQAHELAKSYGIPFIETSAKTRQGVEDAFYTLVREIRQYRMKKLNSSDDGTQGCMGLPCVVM
# [4] = SPR Single Cycle Kinetics, 1:1 binding model
Structure (SMILES),"Kd [2, 4]",HRAS/KRAS (ratio of KD value with respect to HRAS to KD value with respect to KRAS) [1],NRAS/KRAS (ratio of KD value with respect to NRAS to KD value with respect to KRAS) [3],HRAS/KRAS (ratio of KD value for HRAS to KD value for KRAS) [1],NRAS/KRAS (ratio of KD value for NRAS to KD value for KRAS) [3],further results
CCC(CC)[C@H]1C(=O)N(C)[C@H](C(=O)N2CCCC2)CC(=O)N(C)[C@H]2CCC/C=C/c3ccc(cc3)C[C@@H](C(=O)N(C)CC(=O)N[C@@H](CCc3ccc(Cl)c(Cl)c3)C(=O)N3CCC[C@H]3C(=O)NC3(CC(C)(C)C3)C(=O)N1C)N1CC/C=C\C[C@@H](C1=O)N(C)C(=O)CN(C)C(=O)[C@H]([C@@H](C)CC)NC2=O [PP2604],0.4 nM,,,,,HRAS/KRAS (ratio of KD value with respect to GDP-bound HRAS wild-type protein to KD value with respect to KRAS) [1]: A (a compound having 10 or more and less than 20 is denoted as A); NRAS/KRAS (ratio of KD value with respect to GDP-bound NRAS wild-type protein to KD value with respect to KRAS) [3]: AA (a compound having 20 or more is denoted as AA)
CCO[C@@H]1C[C@H]2C(=O)NC3(CCC3)C(=O)N(C)[C@@H](C(CC)CC)C(=O)N(C)[C@H](C(=O)N3CCCCC3)CC(=O)N(C)[C@H]3CCC/C=C/c4ccc(cc4)C[C@@H](C(=O)N(C)CC(=O)N[C@@H](CCc4cc(F)c(C(F)(F)F)c(F)c4)C(=O)N2C1)N1CC/C=C\C[C@@H](C1=O)N(C)C(=O)CN(C1CC1)C(=O)[C@H]([C@@H](C)CC)NC3=O [PP2956],1.1 nM,,,,,HRAS/KRAS (ratio of KD value with respect to GDP-bound HRAS wild-type protein to KD value with respect to KRAS) [1]: A (a compound having 10 or more and less than 20 is denoted as A); NRAS/KRAS (ratio of KD value with respect to GDP-bound NRAS wild-type protein to KD value with respect to KRAS) [3]: AA (a compound having 20 or more is denoted as AA)
CCCN1C(=O)CN(C)C(=O)CNC(=O)[C@H]([C@@H](C)CC)NC(=O)[C@H](CC(C)C)N(C)C(=O)C[C@@H](C(=O)N(C)C)NC(=O)[C@H](C2CCCC2)N(C)C(=O)C2(CCCC2)NC(=O)[C@@H]2C[C@@H](OCC)CN2C(=O)[C@H](CCc2ccc(C(F)(F)F)c(Cl)c2)NC(=O)CN(C)C(=O)[C@@H]1Cc1ccc(C(F)(F)F)cc1 [PP0365] ([NMeL]IG[Sar][NPrPhe(4-CF3)][Sar][hPhe(3-Cl-4-CF3)][Hyp](Et)[Ac5c][NMeGly(cPent)]D-NMe2; lactam N-11),0.29 nM,,,B (a compound having 3 or more and less than 10 is denoted as B),B (a compound having 3 or more and less than 10 is denoted as B),
CCO[C@@H]1C[C@H]2C(=O)NC3(CCC3)C(=O)N(C)[C@@H](C3CCCC3)C(=O)N(C)[C@H](C(=O)N3CCOCC3)CC(=O)N(C)[C@@H](CC)C(=O)N[C@@H]([C@@H](C)CC)C(=O)N3CC[C@H]3C(=O)N(C)[C@H]3C[C@@H](C)CCN(C3=O)[C@@H](Cc3ccc(C(F)(F)F)cc3)C(=O)N(C)CC(=O)N[C@@H](CCc3cc(F)c(C(F)(F)F)c(F)c3)C(=O)N2C1 [PP1028],,,,B (a compound having 3 or more and less than 10 is denoted as B),B (a compound having 3 or more and less than 10 is denoted as B),"Kd ([2]; SPR, Single Cycle Kinetics): 0.099 nM"
"CCO[C@@H]1C[C@H]2C(=O)NC3(CCCC3)C(=O)N(C)[C@@H](C3CCCC3)C(=O)N(C)[C@H](C(=O)N(C)CC)CC(=O)N(C)[C@@H](CC(C)C)C(=O)N[C@@H]([C@@H](C)CC)C(=O)N(C)CC(=O)N(C)[C@H]3C/C=C\CCN(C3=O)[C@@H](Cc3ccc(C(F)(F)F)cc3)C(=O)N(C)CC(=O)N[C@@H](CCc3cc(F)c(C(F)(F)F)c(F)c3)C(=O)N2C1 [PP1574, (2S,8S,12R,14S,20S,23S,27S,30S,36S,38Z)-20-cyclopentyl-8-[2-[3,5-difluoro-4-(trifluoromethyl)phenyl]ethyl]-12-ethoxy-N-ethyl-27-isobutyl-N,4,19,22,26,32,35-heptamethyl-30-[(1S)-1-methylpropyl]-3,6,9,15,18,21,25,28,31,34,42-undecaoxo-2-[[4-(trifluoromethyl)phenyl]methyl]spiro[1,4,7,10,16,19,22,26,29,32,35-undecazatricyclo[34.5.1.0^10,14]dotetracont-38-ene-17,1′-cyclopentane]-23-carboxamide]",,,,,,"HRAS/KRAS (ratio of KD value for HRAS to KD value for KRAS) ([1]; KD ratio class): A (a compound having 10 or more and less than 20 is denoted as A); Kd ([2]; SPR, Single Cycle Kinetics, 1:1 binding model): 0.15 nM; NRAS/KRAS (ratio of KD value for NRAS to KD value for KRAS) ([3]; KD ratio class): A (a compound having 10 or more and less than 20 is denoted as A)"
CC[C@H](C)[C@@H]1NC(=O)[C@@H]2CCCCCCc3ccc(cc3)C[C@@H](C(=O)N(C)CC(=O)N[C@@H](CCc3ccc(C(F)(F)F)c(OC)c3)C(=O)N3C[C@H](OC4CCC4)C[C@H]3C(=O)NC3(CC(C)(C)C3)C(=O)N(C)[C@@H](C3CCCC3)C(=O)N(C)[C@H](C(=O)N(C)C)CC(=O)N2C)N2CC/C=C\C[C@@H](C2=O)N(C)C(=O)CN(C)C1=O [PP3068],,,,B (a compound having 3 or more and less than 10 is denoted as B),A (a compound having 10 or more and less than 20 is denoted as A),"Kd ([2]; SPR, Single Cycle Kinetics): 0.05 nM"

# The next lines start with results.
"Kd [2, 4]",Structure (SMILES),HRAS/KRAS (ratio of KD value with respect to HRAS to KD value with respect to KRAS) [1],NRAS/KRAS (ratio of KD value with respect to NRAS to KD value with respect to KRAS) [3],HRAS/KRAS (ratio of KD value for HRAS to KD value for KRAS) [1],NRAS/KRAS (ratio of KD value for NRAS to KD value for KRAS) [3],further results
0.6 nM,CC[C@H](C)[C@@H]1NC(=O)[C@H](CC(C)C)N(C)C(=O)C[C@@H](C(=O)N2CCOCC2)N(C)C(=O)[C@H](C2CCCC2)N(C)C(=O)C2(CCCC2)NC(=O)[C@@H]2CCCN2C(=O)[C@H](CCc2ccc(C(F)(F)F)c(Cl)c2)NC(=O)CN(C)C(=O)[C@H](Cc2ccc(Cl)cc2)N2CCCCC[C@@H](C2=O)N(C)C(=O)CN(C)C1=O [PP0613],B (a compound having 3 or more and less than 10 is denoted as B),B (a compound having 3 or more and less than 10 is denoted as B),,,
10 nM,CC[C@H](C)[C@@H]1NC(=O)[C@H](CC(C)C)NC(=O)C[C@@H](C(=O)N2CCOCC2)N(C)C(=O)[C@H](C2CCCC2)N(C)C(=O)C2(CCCC2)NC(=O)[C@@H]2CCCN2C(=O)[C@H](CCc2cc(F)c(C(F)(F)F)c(F)c2)NC(=O)CN(C)C(=O)[C@H](Cc2ccc(C(F)(F)F)cc2)N2CCCCC[C@@H](C2=O)N(C)C(=O)CN(C)C1=O [PP0516],B (a compound having 3 or more and less than 10 is denoted as B),B (a compound having 3 or more and less than 10 is denoted as B),,,
0.38 nM,CCCN1C(=O)[C@@H]2CCN2C(=O)[C@H](C)N(C)C(=O)[C@H]([C@@H](C)CC)NC(=O)[C@H](CC(C)C)N(C)C(=O)C[C@@H](C(=O)N(C)C)NC(=O)[C@H](C2CCCC2)N(C)C(=O)C2(CCCC2)NC(=O)[C@@H]2CCCN2C(=O)[C@H](CCc2ccc(C(F)(F)F)c(Cl)c2)NC(=O)CN(C)C(=O)[C@@H]1Cc1ccc(C(F)(F)F)cc1 [PP0379] ([NMeL]I[NMeA][Aze][NPrPhe(4-CF3)][Sar][hPhe(3-Cl-4-CF3)]P[Ac5c][NMeGly(cPent)]D-NMe2; lactam N-11),,,B (a compound having 3 or more and less than 10 is denoted as B),C (A compound having a KD ratio of 0.1 or more and less than 3 is denoted as C),
0.046 nM,CCCN1C(=O)[C@@H]2CCN2C(=O)CN(C)C(=O)[C@H]([C@@H](C)CC)NC(=O)[C@H](CC(C)C)N(C)C(=O)C[C@@H](C(=O)N(C)C)N(C)C(=O)[C@H](C2CCCC2)N(C)C(=O)C2(CCCC2)NC(=O)[C@@H]2CCCN2C(=O)[C@H](CCc2ccc(C(F)(F)F)c(Cl)c2)NC(=O)CN(C)C(=O)[C@@H]1Cc1ccc(C(F)(F)F)cc1 [PP0440] ([NMeL]I[Sar][Aze][NPrPhe(4-CF3)][Sar][hPhe(3-Cl-4-CF3)]P[Ac5c][NMeGly(cPent)][NMeD]-NMe2; lactam N-11),B (a compound having 3 or more and less than 10 is denoted as B),C (A compound having a KD ratio of 0.1 or more and less than 3 is denoted as C),,,
